Test: gradient 5% acetonitrile 3 min, to 50% in 2 min, to 85% in 15 min, held 3 min, 100 µL/min
Settings: column: Zorbax Extend-C18 2.1 x 50 mm; eluents: water / acetonitrile, 0.1% formic acid
In short: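 Retention time was recorded from adduct peaks, which were picked computationally and each inspected manually. Pure standards ran in mixtures of ~100 molecules on HPLC coupled to a quadrupole time-of-flight mass spectrometer, in positive and negative ionization mode, through a Zorbax Extend-C18 column (2.1 × 50 mm, 1.8 μm) at 100 μL/min. Eluents were water and acetonitrile, each with 0.1% formic acid.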

Which RP-LC retention time does the source give for `CCC(C)CN(CC(=O)N1CCc2sccc2C1COc1ccc(F)cc1)C(=O)COC` (centres undefined) here?
Its RP-LC retention time is 962 s.

For `CCOC(=O)c1cccc(N2C=C(C#N)S(=O)(=O)c3c(F)cccc32)c1`, which RP-LC retention time is on record?
The RP-LC retention time was 907 s.

For `Cc1cc2c(cc1NC(=O)c1cccs1)n(C)c(=O)c(=O)n2C`, which RP-LC retention time is on record?
The RP-LC retention time was 663 s.

Which RP-LC retention time does the source give for `CCCn1c2ccccc2c2nnc(SC(CC)C(=O)Nc3nc(-c4ccccc4)cs3)nc21` (centres undefined) here?
The RP-LC retention time was 1230 s.

Which RP-LC retention time does the source give for `CSc1ccc(-c2nc3ncccn3c2Nc2ccc(C)cc2C)cc1` here?
The RP-LC retention time was 898 s.

For `COc1cccc(CCC(=O)N2CC3CN(S(=O)(=O)c4ccc(C)cc4)CC(C2)O3)c1`, which RP-LC retention time is on record?
The RP-LC retention time was 908 s.

Which RP-LC retention time does the source give for `COc1cc(OC)c(NC(=O)N2CC(n3cnnc3-c3ccccc3)C2)cc1Cl` here?
The RP-LC retention time was 703 s.

For `Cc1ccccc1-c1noc(Cn2ccn(-c3c(C)cccc3C)c(=O)c2=O)n1`, which RP-LC retention time is on record?
The RP-LC retention time was 923 s.

Which RP-LC retention time does the source give for `Cc1sc(-c2noc(C3CC3)n2)cc1S(=O)(=O)N1CCC(C(=O)NC2CCC(C)CC2)CC1` (centres undefined) here?
Its RP-LC retention time is 1120 s.

For `O=C(CN1CCN(Cc2ccc(F)cc2)C1=O)NCc1cc(F)ccc1F`, which RP-LC retention time is on record?
Its RP-LC retention time is 806 s.

With `CCc1ccc(NC(=O)c2cc(C(C)C)n3nccc3n2)cc1` as the compound, how does the RP-LC retention time read?
The RP-LC retention time was 1260 s.

Which RP-LC retention time does the source give for `COc1ccc(NC(=O)Nc2c(-c3cccc(C)c3)nc3ccccn23)c(OC)c1` here?
Its RP-LC retention time is 696 s.

With `CCOc1ccc(C(=O)N2CCN(c3cc(-c4ccc(Cl)cc4)[nH]n3)CC2)cc1OCC` as the compound, how does the RP-LC retention time read?
The RP-LC retention time was 916 s.

With `CN(C)C(CNC(=O)C(=O)NCc1ccc2c(c1)OCO2)c1ccsc1` (centres undefined) as the compound, how does the RP-LC retention time read?
The RP-LC retention time was 556 s.

For `CCC(=O)N1CCc2cc(N3CC(C(=O)N4CCCN(C)CC4)CC3=O)ccc21` (centres undefined), which RP-LC retention time is on record?
The RP-LC retention time was 572 s.

Which RP-LC retention time does the source give for `CCN(CC)S(=O)(=O)c1ccc2c(c1)N(CC(=O)NCc1ccccc1)C(=O)C1CCCCN21` (centres undefined) here?
The RP-LC retention time was 945 s.

With `O=C(Cn1ccc2ccccc21)N1CCN(c2ccc(F)cc2)CC1` as the compound, how does the RP-LC retention time read?
The RP-LC retention time was 884 s.

Which RP-LC retention time does the source give for `CC(C)Cn1nc(CNC(=O)c2ccccn2)c2ccccc21` here?
The RP-LC retention time was 923 s.

Which RP-LC retention time does the source give for `O=C(c1ccco1)N1CCN(C(=O)C2CN(S(=O)(=O)C3CC3)CC23CCCCC3)CC1` (centres undefined) here?
The RP-LC retention time was 758 s.

With `Cc1ccccc1CNC(=O)C1(C)CCCN(C(=O)Nc2ccccc2Br)C1` (centres undefined) as the compound, how does the RP-LC retention time read?
The RP-LC retention time was 1020 s.

For `Cc1[nH]c(C(=O)Nc2cccc(Cl)c2)c(C)c1S(=O)(=O)N1CCCC1`, which RP-LC retention time is on record?
Its RP-LC retention time is 943 s.

Which RP-LC retention time does the source give for `O=C(NCc1ccccc1F)C1CCCN(c2nnc3c(Cl)cccn23)C1` (centres undefined) here?
The RP-LC retention time was 710 s.

For `CCc1ccc(NC(=O)C2CCN(S(C)(=O)=O)c3cc(C)ccc3O2)cc1` (centres undefined), which RP-LC retention time is on record?
Its RP-LC retention time is 998 s.

Which RP-LC retention time does the source give for `CCc1noc(NC(C)=O)c1-c1ccc(C)c(S(=O)(=O)Nc2ccc(F)cc2C)c1` here?
The RP-LC retention time was 848 s.

Which RP-LC retention time does the source give for `O=C(CC(F)(F)F)N1CCC(c2noc(-c3cccnc3)n2)C1` (centres undefined) here?
The RP-LC retention time was 643 s.

Which RP-LC retention time does the source give for `CC(C)S(=O)(=O)N1CCOc2ccc(NC(=O)C3CC3)cc2C1` here?
Its RP-LC retention time is 757 s.

With `Cc1cc2oc(C(=O)Nc3ccccc3[N+](=O)[O-])c(C)c2cc1C` as the compound, how does the RP-LC retention time read?
The RP-LC retention time was 1090 s.

For `CCn1cc(C)c(C(=O)O)c1CC(=O)NCCCN1CCOCC1`, which RP-LC retention time is on record?
The RP-LC retention time was 588 s.

With `N#CCCSc1ccccc1NC(=O)c1ccc([N+](=O)[O-])s1` as the compound, how does the RP-LC retention time read?
The RP-LC retention time was 846 s.

For `Cc1ccc(C)c(NC(=O)Cn2cnc3nc(N4CCCC(C(=O)NC(C)C)C4)sc3c2=O)c1` (centres undefined), which RP-LC retention time is on record?
Its RP-LC retention time is 731 s.

Which RP-LC retention time does the source give for `O=C(Cn1ccc2ccccc21)N1CCN(S(=O)(=O)C2CC2)CC1` here?
The RP-LC retention time was 563 s.

With `CCc1ccc(S(=O)(=O)NCCc2sc(C)nc2C)s1` as the compound, how does the RP-LC retention time read?
The RP-LC retention time was 647 s.

With `O=C(Nc1cccc(-c2ccc(N3CCCC3)nn2)c1)Nc1c(F)cccc1F` as the compound, how does the RP-LC retention time read?
Its RP-LC retention time is 690 s.

With `Cc1ccc(N2CCN(C(=O)c3cn4cccc(C)c4n3)CC2)cc1` as the compound, how does the RP-LC retention time read?
Its RP-LC retention time is 682 s.

With `CCC(C)NC(=O)CS(=O)Cc1cnn(-c2ccccc2)c1-n1cccc1` (centres undefined) as the compound, how does the RP-LC retention time read?
Its RP-LC retention time is 756 s.

With `Cc1nc([C@@H]2CN(C(=O)c3sc(C)nc3C)C[C@H]2C(N)=O)n[nH]1` as the compound, how does the RP-LC retention time read?
The RP-LC retention time was 550 s.

With `CN1C(=O)c2cccnc2Sc2cc(NC(=O)c3ccc(Br)o3)ccc21` as the compound, how does the RP-LC retention time read?
Its RP-LC retention time is 788 s.

Which RP-LC retention time does the source give for `COc1ccc2ncc(S(=O)(=O)c3ccccc3)c(Nc3ccc4c(c3)OCCO4)c2c1` here?
Its RP-LC retention time is 855 s.

Which RP-LC retention time does the source give for `O=C(NCCN1C(=O)C2(CCCCC2)C1c1ccccc1)Nc1ccccc1F` (centres undefined) here?
The RP-LC retention time was 965 s.

With `CCn1c(C(=O)NCc2ccccc2)cc2sc(Cl)cc21` as the compound, how does the RP-LC retention time read?
The RP-LC retention time was 1110 s.

Which RP-LC retention time does the source give for `O=C(NCc1cccc(Cl)c1)c1ccc(-c2nc3cccnc3n2C2CCCCC2)cc1` here?
The RP-LC retention time was 1050 s.

With `CC(C)n1cnc(S(=O)(=O)N2CCC(C(=O)N3CCN(c4ccc(F)cc4)CC3)CC2)c1` as the compound, how does the RP-LC retention time read?
The RP-LC retention time was 799 s.

For `COc1ccc(N2CCN(c3cc(SCC(=O)Nc4ccc(C(C)C)cc4)ncn3)CC2)cc1`, which RP-LC retention time is on record?
The RP-LC retention time was 1110 s.

For `CC1CCN(C(=O)c2cc(S(=O)(=O)N(C)CC(=O)NC3CC3)cn2C)CC1`, which RP-LC retention time is on record?
The RP-LC retention time was 693 s.

Which RP-LC retention time does the source give for `COc1ccc(CNC(=O)Cn2c(=O)c3cc(-c4cccs4)nn3c3ncccc32)cc1` here?
Its RP-LC retention time is 816 s.

For `CC(NC(=O)C1(c2ccc(NS(C)(=O)=O)cc2)CCCCC1)c1ccccc1` (centres undefined), which RP-LC retention time is on record?
Its RP-LC retention time is 926 s.

Which RP-LC retention time does the source give for `COc1cc([C@H]2Oc3cc([C@H]4Oc5cc(O)cc(O)c5C(=O)[C@@H]4O)ccc3O[C@@H]2CO)ccc1O` here?
The RP-LC retention time was 685 s.

For `CN(C)CCn1nnc2cc(-c3noc(-c4ccccc4)n3)ccc21`, which RP-LC retention time is on record?
The RP-LC retention time was 651 s.

With `O=C(Cc1cc(-c2ccc(Cl)cc2)on1)NCCC1=CCCCC1` as the compound, how does the RP-LC retention time read?
Its RP-LC retention time is 584 s.

With `O=C(NC1CCCC1)C1CCCCN1S(=O)(=O)c1ccc(F)cc1` (centres undefined) as the compound, how does the RP-LC retention time read?
The RP-LC retention time was 941 s.

With `O=C(Nc1ccc(Cl)cc1)N1CCCC1c1nc(-c2ccc(F)cc2F)no1` (centres undefined) as the compound, how does the RP-LC retention time read?
Its RP-LC retention time is 1040 s.

For `COCCn1nc2n(c1=O)CCN(C(=O)c1ccc(Br)o1)CC2`, which RP-LC retention time is on record?
Its RP-LC retention time is 636 s.

With `COc1cc(OC)cc(N2C(=O)C3N=NN(Cc4nc(-c5ccc(OC(C)C)cc5)no4)C3C2=O)c1` (centres undefined) as the compound, how does the RP-LC retention time read?
Its RP-LC retention time is 1090 s.

With `O=C(NCc1ccc(F)cc1)NC1CCCN(c2cc(-c3ccncc3)[nH]n2)C1` (centres undefined) as the compound, how does the RP-LC retention time read?
The RP-LC retention time was 610 s.

For `CCN1C(=O)c2cc(C(=O)Nc3ccccc3C)nn2CC1(C)C(=O)NC1CCCC1` (centres undefined), which RP-LC retention time is on record?
The RP-LC retention time was 807 s.

Which RP-LC retention time does the source give for `CNC(=O)CCc1nc2ccccc2n(CC(=O)NCc2ccc(C)cc2)c1=O` here?
The RP-LC retention time was 695 s.

Which RP-LC retention time does the source give for `Cc1ccc(NC(=O)N2CCC(N3CCN(Cc4ccccn4)C(=O)C3=O)CC2)c(Cl)c1` here?
Its RP-LC retention time is 876 s.

For `Cc1ccc(-n2cc(C3=CCN(CC(=O)NCc4cccs4)CC3)cn2)cc1C`, which RP-LC retention time is on record?
Its RP-LC retention time is 735 s.

For `COc1ccc(C(=O)N2CCc3ccc(C(=O)Nc4ccc5c(c4)OCO5)cc32)cc1`, which RP-LC retention time is on record?
Its RP-LC retention time is 773 s.

Which RP-LC retention time does the source give for `CCCn1c(=O)sc2cc(S(=O)(=O)N3CCC(C(=O)Nc4ccccn4)CC3)ccc21` here?
The RP-LC retention time was 780 s.

Which RP-LC retention time does the source give for `CC1CCN(c2cc(-n3cnc(C(=O)N4CCc5ccccc54)c3)ncn2)CC1` here?
Its RP-LC retention time is 1140 s.

For `Cc1csc(-c2cc(S(=O)(=O)NCCN(C)C)cn2CC(=O)N2CCCCC2)n1`, which RP-LC retention time is on record?
The RP-LC retention time was 630 s.

For `O=C(c1ccccc1)N1CCc2cc(CNS(=O)(=O)c3ccccc3)ccc21`, which RP-LC retention time is on record?
Its RP-LC retention time is 819 s.

With `Cc1cc(N2CCN(C)CC2)nc2ccc(NC(=S)N3CCC(C)CC3)cc12` as the compound, how does the RP-LC retention time read?
The RP-LC retention time was 604 s.

From the METLIN SMRT retention time set (Domingo-Almenara et al. 2019)
